{"source": "paper PMC12042115", "about": "(mLife, 2025)", "key": {"ClpP1P2": {"tested_on": "ClpP1P2", "assay": "Jump dilution experiment", "format": "biochemical, Mycobacterium tuberculosis", "settings": "10 µM, 1 h pre‐incubation, diluted to 100 nM, 4‐h course"}, "Mtb ClpP1P2 [1]": {"molecular_target": "T1, Mtb ClpP1P2 (Mycobacterium tuberculosis, UniProt P9WPC3+P9WPC5)", "T1 sequence (P9WPC3 16-214, one chain of several)": "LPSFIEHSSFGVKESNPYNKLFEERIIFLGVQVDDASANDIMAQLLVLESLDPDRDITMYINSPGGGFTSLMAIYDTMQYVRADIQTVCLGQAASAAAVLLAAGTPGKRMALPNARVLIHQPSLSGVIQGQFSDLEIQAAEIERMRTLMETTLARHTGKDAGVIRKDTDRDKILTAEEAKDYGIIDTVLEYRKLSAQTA", "assay": "k obs/[I] determination from progress curves", "format": "biochemical", "settings": "no pre‐incubation, 50 nM ClpP1P2, 200 µM substrate", "method": "10 µM ClpP1P2 was pre‐incubated with 10 µM GDI‐5755 or DMSO solvent for 60 min at room temperature. To induce the formation of the [EI] complex, 0.5 mM Bz‐HT was also added. The mixture was diluted 100‐, 200‐, or 400‐fold to a 50 µl final volume with the peptidase reaction buffer and 20 μM substrate to start the jump dilution experiment. Fluorescence was recorded every 5 min continuously over a 220‐min course. To determine the k obs of the competitive inhibitor, the compound was dispended into a black 384‐well plate in a twofold concentration gradient from 20 µM to 0.5 µM. Without pre‐incubation, the other components (50 nM ClpP1P2, 200 µM substrate, and 0.5 mM Bz‐HT in the PIPES buffer as above) were added like in the peptidase degradation assay. The progress was monitored by continuously recording the fluorescence readouts. The fluorescence vs reaction time in seconds was fitted into Equation (2) using GraphPad Prism 10. (2) [P]=νst+νi−νs/kobs[1−exp(−kobst)] where P represents the product concentration, v s is the steady‐state reaction rate (0 in this case), v i is the initial rate, t is a time point, and k obs is the first‐order rate constant for onset of inhibition. The k obs values obtained were plotted against the inhibitor concentration and fitted into linear regression to yield k obs/[I] values as the slope, indicating the inhibition potency of the compound."}, "[2]": {"tested_on": "ClpP1(7‐200) ClpP2(16‐214) enzyme complex", "assay": "Intact protein MS", "format": "binding, Mycobacterium tuberculosis", "settings": "100 μM compound, 10 μM enzyme, 1 h", "method": "10 μM of the ClpP1(7‐200) ClpP2(16‐214) enzyme complex was incubated with DMSO (as negative control) and 100 μM GDI‐5755 separately in 30 mM PIPES buffer only at room temperature in a final reaction volume of 40 μl. After 1 h of incubation, the samples were sent to a service lab at Peking University for a Matrix‐Assisted Laser Desorption/Ionization (MALDI) Time‐of‐Flight (TOF) MS analysis."}, "M. tuberculosis H37Rv": {"tested_on": "M. tuberculosis H37Rv", "assay": "MIC against Mtb H37Rv", "format": "cell-based, Mycobacterium tuberculosis", "settings": "Mycobacterium tuberculosis, H37RV"}, "Mtb ClpP1P2 [3]": {"molecular_target": "T1, Mtb ClpP1P2", "assay": "Mtb ClpP1P2 peptidase assay (library screening and IC50 determination)", "format": "biochemical"}}, "note": "Where two headings read alike, the source gives them in different places."}
{"smiles": "O=C(Oc1ccc(Cl)cc1)c1ccc(N2CCOCC2)c([N+](=O)[O-])c1", "note": "[GDI‐5755]", "values": [{"measurement": "recovery of peptidase activity after jump dilution", "setting": "ClpP1P2", "value": "did not show recovery of peptidase activity"}, {"measurement": "inactivation efficiency k obs/[I]", "setting": "Mtb ClpP1P2 [1]", "value": "178 ± 10.7", "unit": "s⁻¹ M⁻¹"}, {"measurement": "mass difference between new species and ClpP1", "setting": "[2]", "value": 234.30, "unit": "Da"}, {"measurement": "mass of ClpP2 after treatment", "setting": "[2]", "value": "unchanged"}, {"measurement": "MIC90", "setting": "M. tuberculosis H37Rv", "value": 100, "unit": "µM"}, {"measurement": "IC50", "setting": "Mtb ClpP1P2 [3]; Figure 2B, neat/synthesized compounds, read-out: ClpP1P2 IC50", "value": "~2100", "unit": "nM"}, {"measurement": "IC50", "setting": "Mtb ClpP1P2 [3]; enzyme pre‐incubated with inhibitor before adding substrate, decreased to nearly enzyme concentration, read-out: IC50 after prolonged pre‐incubation", "value": "~130", "unit": "nM"}, {"measurement": "IC50", "setting": "Mtb ClpP1P2 [3]; library stocks, concentration–response, read-out: IC50", "value": 2090, "unit": "nM"}, {"measurement": "IC50", "setting": "Mtb ClpP1P2 [3]; resynthesized compound, screening assay conditions, three replicates, read-out: IC50", "value": "2400 ± 70", "unit": "nM"}]}
